Key:
[1] = Rabbit Cornea Homogenate stability (esterase) assay, Method 2; assay type: in vitro ADME; conditions: for Esterase % Lifitegrast formation at 45 min: 37° C., Method 2 (DPBS pH 7.4); for API Formation rate (%/min): Method 2
Description: (§1) Determining Rabbit Cornea Homogenate stability of the test compounds was performed using HPLC-MS or UPLC-MS. The assay was performed at two concentrations of Rabbit Cornea Homogenate (0.15 mg/mL and 0.45 mg/mL total protein) so that any hydrolysis observed can be assigned as esterase dependent or not.
(§2) Three to five rabbit corneas (e.g. New Zealand Whites (NZW) or Dutch Belted (DB)) of approx. 50 mg each were sliced and scraped with a scalpel and tweezers until reduced to small (1-3 mm), thin pieces. These were transferred into a glass vial containing approximately 2 mL of cold DPBS pH 7.4 buffer.
(§3) Sample was cooled intermittently on ice and shear homogenized for 3 minutes, then centrifuged for 3 min at 13,000 g. The supernatant was pipetted off into a vial, and total protein concentration determined at 280 nm. Sample was stored at −78° C.
10 mM Compound DMSO stocks were diluted to 10 μM in a glass vial: 10 μL of 10 mM Compound stock was added to 9,990 μL DPBS, pH 7.4 buffer. Esterase homogenate was diluted to 300 ng/μL and 900 ng/μL in DPBS. […]
A heater shaker was set to 37° C. Into a suitable 96 well plate (Run Plate), 80 μL of 300 or 900 ng/μL esterase homogenate was pipetted into two rows as compounds were analyzed in duplicate (0 min, 2 min, 5 min, 10 min, 20 min and 45 min). The plate was sealed and then warmed at 37° C. for 5 min.
Two 96 shallow-well plates were placed on ice (Kill Plates). To these, 180 μL of 60:40 MeCN-H2O+0.1% acetic acid were added to required rows. The plates were sealed to minimise evaporation.
To both rows of the Run Plate, 80 μL of 10 μM compound solution was added. At the appropriate time point, 20 μL of the assay mixture was added to the matching kill plate well containing 180 μL of 60:40 cold MeCN-H2O+0.1% acetic acid. For lipoic acid analysis, samples were analysed as soon as practicable by LCMS (Waters Xevo TQ-S). For parent conjugate and parent analysis the samples were diluted further 1 in 10: 20 μL supernatant was added to 180 μL of 50:50 MeCN—H2O.
Parent conjugate, parent and keratolytic concentrations were determined against appropriate standard response curves and the half-life (T½) of the parent conjugate was calculated using the peak area or the measured concentration of the parent conjugate at each time point in the linear region of the log-linear plot.

[2] = Aqueous hydrolysis stability assay, Method 2; assay type: physicochemical; conditions: Method 2: DPBS pH 7.4, 37° C.
Description: (§4) Determination of aqueous stability of the test compounds was performed using HPLC-MS or UPLC-MS. A test compound 10 mM stock solution was prepared in DMSO. Half-life (T1/2) of the parent conjugate is calculated using the peak area of the parent conjugate at each time point in the linear region of the log-linear plot.
10 μL of the DMSO stock solution is dissolved in 990 μL of DPBS pH 7.4 buffer to prepare 100 μM solution. A further dilution is made by dissolving 75 μL of 100 μM stock solution into 225 μL of DPBS. Final DMSO concentration is 0.25%. The solution is kept at 37° C. and injected without delay into the LCMS (Waters Xevo XSQ-ToF). Additional injections are performed at appropriate time points.

[3] = Rabbit Cornea Homogenate stability (esterase) assay, Method 1; assay type: in vitro ADME; conditions: for Esterase % Lifitegrast formation at 45 min: 37° C., Method 1 (50 mM HEPES pH 7.5); for Esterase % keratolytic agent formation at 45 min / API Formation rate (%/min): Method 1
Description: as §1, §2, §3
10 mM Compound stocks were diluted to 100 μM in a 96 deep-well plate: 10 μL of 10 mM Compound stock was added to 990 μL 50 mM HEPES, pH 7.5 buffer. Compounds were further diluted to 10 μM: 100 μL of 100 μM compound was added to 900 μL 50 mM HEPES, pH 7.5 buffer. Esterase homogenate was diluted to 300 ng/μL and 900 ng/μL.
A heater shaker was set to 37° C. Into a suitable 96 well plate (Run Plate), 75 μL of 300 or 900 ng/μL esterase homogenate was pipetted into each of the required wells (2 min, 5 min, 10 min, 20 min and 45 min). The plate was sealed and then warmed at 37° C. for 5 min.
Another 96 well PCR plate was put on ice (Kill Plate). To this was added 100 μL of MeCN to each well, labelled 0 min 2 min, 5 min, 10 min, 20 min and 45 min. The plate was covered to minimize evaporation.
For the T=0 sample only, to the 100 μL cold MeCN stop solution was added 50 μL of 300 or 900 ng/μL esterase homogenate followed by 50 μL of 10 μM compound solution. For the remaining timepoints, 75 μL of 10 μM compound solution was added to the Run Plate starting from T=45 min row and ending with T=2 min row. At the appropriate time point, 100 μL of the assay mixture was added to the matching kill plate well containing 100 μL of cold MeCN. Samples were analyzed as soon as practicable by LCMS (Waters Xevo TQ-S or Micromass Ultima).
Parent conjugate and parent concentrations were determined against appropriate standard response curves and the half-life (T½) of the parent conjugate was calculated using the peak area of the parent conjugate at each time point in the linear region of the log-linear plot.

[4] = Aqueous hydrolysis stability assay, Method 1; assay type: physicochemical; conditions: 45 min; Method 1: 50 mM HEPES pH 7.5 or 1:1 acetonitrile:water, room temperature
Description: as §4
10 μL of the DMSO stock solution was dissolved in 990 μL of 50 mM HEPES pH 7.5 buffer or 1:1 (v/v) of acetonitrile:water to make a 100 μM solution. Final DMSO concentration was 1%. The solution was kept at room temperature and injected without delay into the LCMS (Waters Xevo TQ-S or Micromass Ultima). Additional injections were performed at appropriate time points.

[5] = tested on: patients with dry eye and delayed tear clearance; conditions: 0.5% ophthalmic suspension, QID, 4 weeks, 64 patients (Pflugfelder et al 2004); cited from earlier work
human T-cell line = conditions: in vitro; cited from earlier work
[6] = tested on: human peripheral blood mononuclear cells; conditions: in vitro; cited from earlier work
[7] = Cornea Homogenate Conc 0.15 mg/mL
[8] = Cornea Homogenate Conc 0.45 mg/mL

Compound	Esterase % Lifitegrast formation at 45 min [1, 7]	API Formation rate (%/min) [1, 7]	Esterase % Lifitegrast formation at 45 min [1, 8]	API Formation rate (%/min) [1, 8]	further results
CC(OC(=O)CCC(=O)O)OC(=O)[C@H](Cc1cccc(S(C)(=O)=O)c1)NC(=O)c1c(Cl)cc2c(c1Cl)CCN(C(=O)c1ccc3ccoc3c1)C2 (stereo partly shown) [Compound 45]	C (percent API formation 51% to 75%)	c (API formation rate 1.0-1.5%/min)	C (percent API formation 51% to 75%)	c (API formation rate 1.0-1.5%/min)	Hydrolytic % Lifitegrast formation at [time] ([2]; 44 min): C [44 min] (percent API formation >4%)
CC(=O)N[C@@H](CS)C(=O)OC(C)OC(=O)[C@H](Cc1cccc(S(C)(=O)=O)c1)NC(=O)c1c(Cl)cc2c(c1Cl)CCN(C(=O)c1ccc3ccoc3c1)C2 (stereo partly shown) [Compound 5]	–	–	–	–	Esterase % Lifitegrast formation at 45 min [3, 7]: A (percent active pharmaceutical ingredient (API) formation <25%); Esterase % keratolytic agent formation at 45 min [3, 7]: A (percent active pharmaceutical ingredient (API) formation <25%); API Formation rate (%/min) [3, 7]: a (API formation rate <0.5%/min); Esterase % Lifitegrast formation at 45 min [3, 8]: A (percent active pharmaceutical ingredient (API) formation <25%); Esterase % keratolytic agent formation at 45 min [3, 8]: A (percent active pharmaceutical ingredient (API) formation <25%); API Formation rate (%/min) [3, 8]: a (API formation rate <0.5%/min); Hydrolytic % Lifitegrast formation at [time] [4]: C [45 min] (percent API formation >4%)
CCOC(=O)O[C@]1(C(=O)OCCl)CC[C@H]2[C@@H]3CCC4=CC(=O)C=C[C@]4(C)[C@H]3[C@@H](O)C[C@@]21C [loteprednol etabonate]	–	–	–	–	improving some signs and symptoms versus vehicle [5]: more effective than its vehicle
CC(=O)N[C@@H](CSSC[C@H](NC(C)=O)C(=O)OC(C)OC(=O)[C@H](Cc1cccc(S(C)(=O)=O)c1)NC(=O)c1c(Cl)cc2c(c1Cl)CCN(C(=O)c1ccc3ccoc3c1)C2)C(=O)OC(C)OC(=O)[C@H](Cc1cccc(S(C)(=O)=O)c1)NC(=O)c1c(Cl)cc2c(c1Cl)CCN(C(=O)c1ccc3ccoc3c1)C2 (stereo partly shown) [Compound 49]	A (percent active pharmaceutical ingredient (API) formation <25%)	a (API formation rate <0.5%/min)	A (percent active pharmaceutical ingredient (API) formation <25%)	a (API formation rate <0.5%/min)	–
CS(=O)(=O)c1cccc(C[C@H](NC(=O)c2c(Cl)cc3c(c2Cl)CCN(C(=O)c2ccc4ccoc4c2)C3)C(=O)O)c1 [lifitegrast]	–	–	–	–	inhibition of T-cell adhesion to ICAM-1 (human T-cell line): may inhibit T-cell adhesion to ICAM-1; inhibition of secretion of inflammatory cytokines [6]: may inhibit secretion of inflammatory cytokines

The next lines start with results.

Esterase % Lifitegrast formation at 45 min [1, 7]	API Formation rate (%/min) [1, 7]	Esterase % Lifitegrast formation at 45 min [1, 8]	API Formation rate (%/min) [1, 8]	Compound	further results
D (percent API formation >75%)	d (API formation rate >1.5%/min)	D (percent API formation >75%)	d (API formation rate >1.5%/min)	CC(=O)SCC(=O)OC(C)OC(=O)[C@H](Cc1cccc(S(C)(=O)=O)c1)NC(=O)c1c(Cl)cc2c(c1Cl)CCN(C(=O)c1ccc3ccoc3c1)C2 (stereo partly shown) [Compound 31]	Hydrolytic % Lifitegrast formation at [time] ([2]; 60 min): C [60 min] (percent API formation >4%)
C (percent API formation 51% to 75%)	d (API formation rate >1.5%/min)	C (percent API formation 51% to 75%)	d (API formation rate >1.5%/min)	CC(OC(=O)OCCO)OC(=O)[C@H](Cc1cccc(S(C)(=O)=O)c1)NC(=O)c1c(Cl)cc2c(c1Cl)CCN(C(=O)c1ccc3ccoc3c1)C2 (stereo partly shown) [Compound 42]	–
